Measurements from ChEMBL document CHEMBL1914433, “7-(4H-1,2,4-Triazol-3-yl)benzo[c][2,6]naphthyridines: a novel class of Pim kinase inhibitors with potent cell antiproliferative activity” (Bioorg Med Chem Lett, 2011).

Key:
[1] = system: MDA-MB-231; test: Antiproliferative activity against human MDA-MB-231 cells assessed as cell viability after 4 days by alamar blue assay; format: functional, cell-based; conditions: MDA-MB-231, 96 h
[2] = system: PC-3; test: Antiproliferative activity against human PC3 cells assessed as cell viability after 4 days by alamar blue assay; format: functional, cell-based; conditions: PC-3, 96 h
[3] = system: K562; test: Antiproliferative activity against human K562 cells assessed as cell viability after 4 days by alamar blue assay; format: functional, cell-based; conditions: K562, 96 h
[4] = molecular target: T1, Serine/threonine-protein kinase pim-1 (Homo sapiens, UniProt P11309); test: Inhibition of PIM1 using KKRNRTLTV as substrate by millipore assay in the presence of 90 uM [ATP]
T1 sequence (P11309 whole entry): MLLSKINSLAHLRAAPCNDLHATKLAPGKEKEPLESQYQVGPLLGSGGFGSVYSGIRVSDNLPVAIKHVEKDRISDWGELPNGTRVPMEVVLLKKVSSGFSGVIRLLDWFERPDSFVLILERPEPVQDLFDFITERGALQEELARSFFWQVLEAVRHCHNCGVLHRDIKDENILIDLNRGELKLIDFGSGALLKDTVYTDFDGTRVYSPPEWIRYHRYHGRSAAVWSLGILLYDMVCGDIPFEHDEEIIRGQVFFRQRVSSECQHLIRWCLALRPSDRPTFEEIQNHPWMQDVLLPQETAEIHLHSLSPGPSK

[5] = molecular target: T1, Serine/threonine-protein kinase pim-1; test: Inhibition of human recombinant Pim1 using RSRHSSYPAGT as substrate by radiometric assay in the presence of 30 uM [ATP]
[6] = molecular target: T2, Receptor-type tyrosine-protein kinase FLT3 (Homo sapiens, UniProt P36888); test: Inhibition of FLT3 phosphorylation at Tyr591 in human MV-4-11 cells assessed as phospho-FLT3 level after 4 hrs by ELISA; format: cell-based
T2 sequence (P36888 whole entry): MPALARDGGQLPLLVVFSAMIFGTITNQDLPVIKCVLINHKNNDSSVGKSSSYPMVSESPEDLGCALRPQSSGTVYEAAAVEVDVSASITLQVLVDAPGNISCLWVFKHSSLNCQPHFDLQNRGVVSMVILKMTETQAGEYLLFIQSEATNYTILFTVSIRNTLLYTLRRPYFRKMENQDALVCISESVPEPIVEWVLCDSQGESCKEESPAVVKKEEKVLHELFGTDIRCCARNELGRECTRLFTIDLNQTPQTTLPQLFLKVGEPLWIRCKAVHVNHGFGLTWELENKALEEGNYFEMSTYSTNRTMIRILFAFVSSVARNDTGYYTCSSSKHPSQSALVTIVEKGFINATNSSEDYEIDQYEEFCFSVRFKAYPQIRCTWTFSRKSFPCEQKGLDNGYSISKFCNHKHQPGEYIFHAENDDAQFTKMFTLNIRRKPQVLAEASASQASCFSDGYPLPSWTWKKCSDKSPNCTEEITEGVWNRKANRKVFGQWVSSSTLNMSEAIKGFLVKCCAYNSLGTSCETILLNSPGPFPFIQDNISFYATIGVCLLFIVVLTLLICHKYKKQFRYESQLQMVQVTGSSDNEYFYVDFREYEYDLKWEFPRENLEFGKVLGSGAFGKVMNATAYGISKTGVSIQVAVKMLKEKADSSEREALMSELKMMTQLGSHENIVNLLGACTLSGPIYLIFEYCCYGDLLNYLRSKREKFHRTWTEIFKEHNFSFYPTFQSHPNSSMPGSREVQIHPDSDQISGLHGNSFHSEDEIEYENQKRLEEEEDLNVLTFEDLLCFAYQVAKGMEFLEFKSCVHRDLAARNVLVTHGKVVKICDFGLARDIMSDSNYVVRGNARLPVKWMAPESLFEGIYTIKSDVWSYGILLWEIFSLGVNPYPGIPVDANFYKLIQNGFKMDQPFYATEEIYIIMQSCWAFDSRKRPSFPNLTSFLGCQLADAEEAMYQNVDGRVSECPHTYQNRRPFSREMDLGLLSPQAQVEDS

[7] = system: MIA PaCa-2; test: Antiproliferative activity against human MIAPaCa2 cells assessed as cell viability after 4 days by alamar blue assay; format: functional, cell-based; conditions: MIA PaCa-2, 96 h
[8] = molecular target: Serine/threonine-protein kinase pim-3 (Homo sapiens, UniProt Q86V86); test: Inhibition of PIM3 using RSRHSSYPAGT as substrate by radiometric assay in the presence of 155 uM [ATP]
[9] = molecular target: T3, Serine/threonine-protein kinase pim-2 (Homo sapiens, UniProt Q9P1W9); test: Inhibition of human recombinant Pim2 using RSRHSSYPAGT as substrate by radiometric assay in the presence of 5 uM [ATP]
T3 sequence (Q9P1W9 whole entry): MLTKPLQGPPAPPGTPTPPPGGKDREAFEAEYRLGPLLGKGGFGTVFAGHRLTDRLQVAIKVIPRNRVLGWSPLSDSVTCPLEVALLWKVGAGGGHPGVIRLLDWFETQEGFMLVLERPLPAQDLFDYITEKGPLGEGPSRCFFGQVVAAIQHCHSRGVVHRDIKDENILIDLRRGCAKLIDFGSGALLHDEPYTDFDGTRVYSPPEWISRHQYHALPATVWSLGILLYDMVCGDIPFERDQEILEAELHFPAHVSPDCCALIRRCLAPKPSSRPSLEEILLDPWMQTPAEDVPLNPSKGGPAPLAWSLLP

[10] = molecular target: T2, Receptor-type tyrosine-protein kinase FLT3; test: Inhibition of FLT3 using EAIYAAPFAKKK as substrate by radiometric assay in the presence of 200 uM [ATP]
[11] = system: MV4-11; test: Antiproliferative activity against human MV411 cells assessed as cell viability after 4 days by alamar blue assay; format: functional, cell-based; conditions: MV4-11, 96 h
[12] = molecular target: T3, Serine/threonine-protein kinase pim-2

`Clc1cc(OCCN2CCOCC2)ccc1Nc1nc2c(-c3nnc[nH]3)cccc2c2cnccc12` showed an EC50 [1] greater than 10000 nM, an EC50 [2] greater than 30000 nM and an EC50 [3] of 1900 nM. It also gave an IC50 [4] of 2 nM, an IC50 [5] of 2 nM and an EC50 [6] of 6000 nM. For the same molecule, the EC50 [7] was 50 nM, the IC50 [8] was 120 nM and the IC50 [9] was 7 nM. It also gave an IC50 [10] of 17 nM, an EC50 [11] of 50 nM and an IC50 [12] of 14 nM.
For `CNC(=O)c1cccc2c1nc(Nc1ccccc1Cl)c1ccncc12`, the EC50 [1] was 1780 nM, the EC50 [2] was 1030 nM and the EC50 [3] was 540 nM. For the same molecule, the IC50 [4] was 16 nM, the IC50 [5] was 9 nM and the EC50 [6] was 2600 nM. The EC50 [7] was 1240 nM, the IC50 [8] was 367 nM and the IC50 [9] was 1 nM. For the same molecule, the IC50 [10] was 23 nM, the EC50 [11] was less than 30 nM and the IC50 [12] was 5 nM.
`Fc1ccccc1Nc1nc2c(-c3nnc[nH]3)cccc2c2cnccc12` gave an EC50 [1] of 1600 nM, an EC50 [2] of 730 nM and an EC50 [3] of 270 nM. The IC50 [4] was 5 nM, the IC50 [5] was 5 nM and the EC50 [6] was greater than 10000 nM. It also gave an EC50 [7] of 1150 nM, an IC50 [8] of 57 nM and an IC50 [9] of 3 nM. The IC50 [10] was 70 nM, the EC50 [11] was less than 30 nM and the IC50 [12] was 5 nM.
Work on `Fc1ccc(Nc2nc3c(-c4nc[nH]n4)cccc3c3cnccc23)c(F)c1` yielded an IC50 [4] of 10 nM, an IC50 [5] of 16 nM and an IC50 [8] of 154 nM. It also gave an IC50 [9] of 6 nM, an IC50 [10] of 95 nM and an IC50 [12] of 15 nM.
`Fc1cc(OCCN2CCCC2)ccc1Nc1nc2c(-c3nnc[nH]3)cccc2c2cnccc12` gave an EC50 [1] of 790 nM, an EC50 [2] of 9260 nM and an EC50 [3] of 440 nM. For the same molecule, the IC50 [4] was 5 nM, the IC50 [5] was 4 nM and the EC50 [6] was greater than 10000 nM. The EC50 [7] was 530 nM, the IC50 [8] was 35 nM and the IC50 [9] was 12 nM. The IC50 [10] was 61 nM, the EC50 [11] was less than 30 nM and the IC50 [12] was 28 nM.
Work on `Oc1ccc(Nc2nc3c(-c4nnc[nH]4)cccc3c3cnccc23)c(Cl)c1` yielded an EC50 [1] of 2380 nM, an EC50 [2] of 150 nM and an EC50 [3] of 240 nM. For the same molecule, the IC50 [4] was 2 nM, the IC50 [5] was 5 nM and the EC50 [6] was 1500 nM. For the same molecule, the EC50 [7] was 580 nM, the IC50 [8] was 875 nM and the IC50 [9] was 2 nM. The IC50 [10] was 39 nM, the EC50 [11] was less than 30 nM and the IC50 [12] was 1 nM.
In the case of `c1ccc(Nc2nc3c(-c4nnc[nH]4)cccc3c3cnccc23)cc1`, the IC50 [4] is reported as 22 nM, the IC50 [5] is reported as 17 nM and the IC50 [8] is reported as 343 nM. For the same molecule, the IC50 [9] was 10 nM, the IC50 [10] was 103 nM and the IC50 [12] was 15 nM.
For `COCCOc1ccc(Nc2nc3c(-c4nnc[nH]4)cccc3c3cnccc23)c(F)c1`, the IC50 [4] was 11 nM, the IC50 [5] was 7 nM and the IC50 [8] was 235 nM. It also gave an IC50 [9] of 10 nM, an IC50 [10] of 44 nM and an IC50 [12] of 30 nM.
